Data set [1] relates to Ly19 xenografts. Put plainly: Antitumor activity in SCID mice bearing Ly19 xenografts, bendamustine combination (Example 4). The format is in vivo, mouse. The note with it: alone or combined.
The subject of data set [2] is OCI-Ly10 human DLBCL xenografts. As to the kind of experiment: Antitumor activity in SCID mice bearing OCI-Ly10 human DLBCL xenografts, ibrutinib or bendamustine combination (Example 5). The format is in vivo, mouse. The note with it: Day 21; Compound A 60 mg/kg PO QD; ibrutinib 6 mg/kg PO QD; bendamustine 1 mg/kg IV BIW (6 doses); alone or combined with Compound A; citrate. Background: In xenograft studies the graft and the host belong to different species.

Data set [3] concerns OCI-LY10 xenografts. Put plainly: Antitumor activity in CB17 SCID mice bearing OCI-LY10 xenografts, gemcitabine combination (Example 7). The format is in vivo, mouse. To be noted: Day 21, alone or combined. On the procedure:
Tumor growth inhibition was calculated on Day 21 of the study. The last measurement was taken on Day 42 of the study.
(§1) Experimental design: Female CB17 SCID mice (Taconic Biosciences; weight at treatment start was 20 g) were inoculated subcutaneously in the flank (cell suspension) with 4.0×10^6 OCI-Ly10 cells. Tumor volume was calculated using the formula V=W^2×L/2, where V=volume, W=width and L=length of the tumor. When the mean tumor volume reached approximately 199 mm^3, the animals were randomized into 6 treatment groups (n=8/group). […] Tumor growth and body weight were measured twice per week. Tumor growth inhibition and body weight change were calculated on Day 21 of treatment.
(§2) Statistical analysis: The differences in the tumor growth trends over time between pairs of treatment groups were assessed using linear mixed effects regression models. These models account for the fact that each animal was measured at multiple time points. A separate model was fit for each comparison, and the areas under the curve (AUC) for each treatment group were calculated using the predicted values from the model. The percent decrease in AUC (dAUC) relative to the reference group was then calculated. […] Further details regarding pairwise comparisons are provided in the Example 2.
(§3) Drug combinations were assessed for synergy using observed AUC values. The change in AUC relative to the control was calculated for both single agent treatment groups as well as the combination group. The interaction between the two compounds was then assessed by comparing the change in AUC observed in the combination group to the sum of the changes observed in both single agents. The results can be divided into four categories: synergistic, additive, sub-additive, and antagonistic. Further details regarding combination analyses are provided in the Example 2.
(§4) Once a final analysis was selected, the tumor measurements observed on a date pre-specified by the researcher (typically the last day of treatment) were analyzed to assess tumor growth inhibition. For this analysis, a T/C ratio was calculated for each animal by dividing the tumor measurement for the given animal by the mean tumor measurement across all control animals. The T/C ratios across a treatment group were compared to the T/C ratios of the control group using a two-tailed Welch's t-test.

Data set [4] has as its system TMD8 DLBCL xenografts. Put plainly: Antitumor activity in CB17 SCID mice bearing TMD8 DLBCL xenografts, ABT-199 or gemcitabine combination (Example 9). To be noted: Day 14, alone or combined with Compound A. Format: in vivo, mouse. The method, then: Tumor growth inhibition was calculated on Day 14 of the study. The last measurement was taken on Day 29 of the study.
as §1, with “about 19” for “20”, “5.0×10^6 TMD8” for “4.0×10^6 OCI-Ly10”, “cells. Tumor growth was monitored with vernier calipers.” for “cells.”, “245” for “199”, “14” for “21”
as §2, §3, §4

A short description of data set [5]: Body weight and tolerability, A20 study (Example 1). To be noted: Compound A 60 mg/kg PO QD 21 d, anti-PD-1 10 mg/kg IP Q4D x3, alone or combined. Format: in vivo, mouse.
The nature of data set [6]: Body weight and tolerability, OCI-LY10 gemcitabine study (Example 7). The format is in vivo, mouse. To be noted: alone or combined. The method, then:
as §1

Data set [7] can be described thus: Body weight and tolerability, TMD8 gemcitabine study (Example 8). The format is in vivo, mouse. To be noted: alone or combined. The method, then: as §1, with “19” for “20”, “5.0×10^6 TMD8” for “4.0×10^6 OCI-Ly10”, “cells. Tumor growth was monitored with vernier calipers.” for “cells.”, “215” for “199”, “into” for “into 6”, “14” for “21”
A short description of data set [8]: Body weight and tolerability, TMD8 ABT-199/gemcitabine study (Example 9). Format: in vivo, mouse. To be noted: alone or combined with Compound A. The method, then: as §1, with “about 19” for “20”, “5.0×10^6 TMD8” for “4.0×10^6 OCI-Ly10”, “cells. Tumor growth was monitored with vernier calipers.” for “cells.”, “245” for “199”, “14” for “21”
Data set [9] can be described thus: Body weight and tolerability, OCI-LY10 ABT-199 study (Example 11). Format: in vivo, mouse. The note with it: alone or combined. The method, then: as §1, with “(Charles River Laboratories, about 21 g” for “(Taconic Biosciences; weight”, “start)” for “start was 20 g)”, “cells. Tumor growth was monitored with vernier calipers.” for “cells.”, “175” for “199”, “into” for “into 6”, “(n=5/group).” for “(n=8/group).”

The subject of data set [10] is sensitive cell systems. As to the kind of experiment: Activity in sensitive cell systems. Format: cell-based.
The nature of data set [11]: Clinical activity in a recent study (response-evaluable subjects). Format: in vivo. The note with it: 3 DLBCL PR, 1 FL CR, 2 FL SD.
For data set [12] the following is noted: mouse, in vivo, po, 60 mg/kg.
The mark [13] stands for this setting: Day 14, Compound A 60 mg/kg PO QD x14, bendamustine 1.0 mg/kg IV BIW x2.
Setting [14] is: Compound A 60 mg/kg PO QD, gemcitabine 2.5 mg/kg IP Q3D.
The mark [15] stands for this setting: Compound A 60 mg/kg, gemcitabine 2.5 mg/kg.
The mark [16] stands for this setting: Compound A 60 mg/kg, ABT-199 25 mg/kg, gemcitabine 5 mg/kg.

Where “and” joins values, the source holds several entries; their conditions need not be identical. Equal entries are not always repeated. Structures can show the parent of a compound that is named as a salt.

What is called TGI is how far tumour growth fell short of that in controls. As usually defined, the EC50 is the midpoint of the concentration-response curve. Lower therefore signals higher potency in that assay.

Take `Cn1cc(-c2nc(N[C@@H]3CCCC[C@@H]3N)c(F)c3c2C(=O)NC3)cn1` [Compound A, 6-((1R,2S)-2-aminocyclohexylamino)-7-fluoro-4-(1-methyl-1H-pyrazol-4-yl)-1H-pyrrolo[3,4-c]pyridine-3 (2H)-one citrate]: the “Mean Tumor Volume (mm^3) ± SEM at Day 14” value in [1] (setting [13]) came to 1683.9 ± 167.1 mm^3. The “TGI (%)” value is listed as 32.6% in data set [1] (setting [13]); 65.5% in data set [3] (setting [14]); 25.7% in [4] (Compound A 60 mg/kg PO QD, ABT-199 25 mg/kg PO QD, gemcitabine 5 mg/kg IP Q3D x4). The dAUC in data set [1] (vs vehicle, Compound A 60 mg/kg, bendamustine 1.0 mg/kg) was determined as 18.8. Moreover, the inhibition of tumour growth (TGI) in data set [2] is given as 38.8%. Further, the “Mean Tumor Volume (mm^3) ± SEM” value is 409.4 ± 55.2 mm^3 in [3] (setting [14]) and 1,100.2 ± 134.5 mm^3 in data set [4] (setting [16]). Also, the figures for the T/C in [3] (setting [15]) and in [4] (setting [16]) were 0.35 and 0.74, respectively. Also, the “Number of animals removed” value in data set [5] was 1; in [6] (setting [15]), 0; in data set [7] (Compound A 60 mg/kg, gemcitabine 5 mg/kg) it was 0; in [8] (setting [16]), 0; in data set [9] (Compound A 60 mg/kg, ABT-199 12.5 mg/kg), 0. The “% BW Change (Day Maximum)” value in data set [5] (maximum change within treatment period, citrate) was 15.8% and 15.8 (19) %; in [6] (Compound A 60 mg/kg PO QD 21 d, gemcitabine 2.5 mg/kg IP Q3D (4 doses)), 6.8 (21) %; in [7] (Compound A 60 mg/kg PO QD 14 d, gemcitabine 5 mg/kg IP Q3D x4), 6.4 (12) %; in data set [8] (Compound A 60 mg/kg PO QD 14 d, ABT-199 25 mg/kg PO QD 14 d, gemcitabine 5 mg/kg IP Q3D x4), 7.9 (14) %; in data set [9] (Compound A 60 mg/kg PO QD 21 d, ABT-199 12.5 mg/kg PO QD 21 d), −0.0 (3) %. For the same molecule, the EC50 in data set [10] is 25 to 400 nM. In addition, in [11], the “response-evaluable subjects who responded to treatment” value is listed as 6 of the 20. Further, in data set [12], the “Maximum mean % BWL” value is recorded as 0%.

The record behind these values is patent publication US20190231757A1, “COMBINATION OF SPLEEN TYROSINE KINASE INHIBITORS AND OTHER THERAPEUTIC AGENTS” (Takeda Pharmaceutical Company Limited, priority 2016, published 2019).
